Assay results reported in the supplement of paper PMC4932681.

Assays:
T-47D [1] = assay: relative IC50 (midpoint of fitted logistic curve, plateau may be below 50% inhibition; CellTiter-Glo viability); higher = less potent; conditions: 72 h
How it was run: (§1)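 Drug sensitivity score, relative IC50 as the curve midpoint, and top-dose inhibition were derived from logistic dose–response fits in the Breeze pipeline. These fits used CellTiter-Glo viability, read on a PHERAstar and normalised to vehicle-only and positive controls. Breast cancer cell lines and resistant derivatives had been incubated for 72 h at 37 °C in 384-well plates holding library drugs at five concentrations spanning a 10 000-fold range. Resistant lines were grown in medium with 1 μM of the selecting drug.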

ZR-75-1 Tam2 [2] = assay: as above; conditions: 4-OH-tamoxifen in medium 1 µM; 72 h
How it was run: as §1

BT-474 Tam1 [3] = assay: as above; conditions: 4-OH-tamoxifen in medium 1 µM; 72 h
How it was run: as §1

T-47D Tam1 [4] = assay: as above; conditions: 4-OH-tamoxifen in medium 1 µM; 72 h
How it was run: as §1

MCF-7 [5] = assay: as above; conditions: 72 h
How it was run: as §1

T-47D Tam2 [6] = assay: as above; conditions: 4-OH-tamoxifen in medium 1 µM; 72 h
How it was run: as §1

ZR-75-1 Tam1 [7] = assay: as above; conditions: 4-OH-tamoxifen in medium 1 µM; 72 h
How it was run: as §1

BT-474 [8] = assay: as above; conditions: 4-OH-tamoxifen in medium 1 µM; 72 h
How it was run: as §1

T-47D [9] = assay: drug sensitivity score (DSS) (DSS (dimensionless)); higher = more sensitive; extreme values may be limits of the assay; conditions: 72 h
Description: (§2)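 FIMM FO2B library drugs were tested at 5 concentrations (10,000-fold range) for 72 h, with CellTiter-Glo viability normalised to DMSO and benzethonium chloride controls. The Drug Sensitivity Score (DSS) is computed from the fitted logistic dose-response curve (area-based; 0 = inactive). Resistant lines and the 'in 1µM tamoxifen' arms were tested in 1 µM 4-OH-tamoxifen.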

ZR-75-1 Tam2 [10] = assay: as above; conditions: 4-OH-tamoxifen in medium 1 µM; 72 h
Description: as §2

BT-474 Tam2 [11] = assay: as above; conditions: 4-OH-tamoxifen in medium 1 µM; 72 h
Description: as §2

BT-474 Tam1 [12] = assay: as above; conditions: 4-OH-tamoxifen in medium 1 µM; 72 h
Description: as §2

T-47D Tam1 [13] = assay: as above; conditions: 4-OH-tamoxifen in medium 1 µM; 72 h
Description: as §2

MCF-7 [14] = assay: as above; conditions: 72 h
Description: as §2

MCF-7 Tam1 = assay: as above; conditions: 4-OH-tamoxifen in medium 1 µM; 72 h
Description: as §2

T-47D Tam2 [15] = assay: as above; conditions: 4-OH-tamoxifen in medium 1 µM; 72 h
Description: as §2

ZR-75-1 Tam1 [16] = assay: as above; conditions: 4-OH-tamoxifen in medium 1 µM; 72 h
Description: as §2

ZR-75-1 [17] = assay: as above; conditions: 72 h
Description: as §2

BT-474 [18] = assay: as above; conditions: 72 h
Description: as §2

ZR-75-1 [19] = assay: relative IC50 (midpoint of fitted logistic curve, plateau may be below 50% inhibition; CellTiter-Glo viability); higher = less potent; conditions: 72 h
How it was run: as §1

BT-474 Tam2 [20] = assay: as above; conditions: 4-OH-tamoxifen in medium 1 µM; 72 h
How it was run: as §1

Structure (SMILES) | relative IC50 (T-47D [1]; 4-OH-tamoxifen in medium 0 µM) [nM] | relative IC50 (ZR-75-1 Tam2 [2]) [nM] | relative IC50 (BT-474 Tam1 [3]) [nM] | relative IC50 (T-47D Tam1 [4]) [nM] | relative IC50 (MCF-7 [5]; 4-OH-tamoxifen in medium 0 µM) [nM] | relative IC50 (MCF-7 [5]; 4-OH-tamoxifen in medium 1 µM) [nM] | relative IC50 (T-47D Tam2 [6]) [nM] | relative IC50 (ZR-75-1 Tam1 [7]) [nM] | relative IC50 (BT-474 [8]) [nM] | drug sensitivity score (T-47D [9]; 4-OH-tamoxifen in medium 0 µM) | drug sensitivity score (T-47D [9]; 4-OH-tamoxifen in medium 1 µM) | drug sensitivity score (ZR-75-1 Tam2 [10]) | drug sensitivity score (BT-474 Tam2 [11]) | drug sensitivity score (BT-474 Tam1 [12]) | drug sensitivity score (T-47D Tam1 [13]) | drug sensitivity score (MCF-7 [14]; 4-OH-tamoxifen in medium 0 µM) | drug sensitivity score (MCF-7 [14]; 4-OH-tamoxifen in medium 1 µM) | drug sensitivity score (MCF-7 Tam1) | drug sensitivity score (T-47D Tam2 [15]) | drug sensitivity score (ZR-75-1 Tam1 [16]) | drug sensitivity score (ZR-75-1 [17]; 4-OH-tamoxifen in medium 0 µM) | drug sensitivity score (ZR-75-1 [17]; 4-OH-tamoxifen in medium 1 µM) | drug sensitivity score (BT-474 [18]; 4-OH-tamoxifen in medium 0 µM) | drug sensitivity score (BT-474 [18]; 4-OH-tamoxifen in medium 1 µM) | relative IC50 (ZR-75-1 [19]; 4-OH-tamoxifen in medium 0 µM) [nM] | relative IC50 (ZR-75-1 [19]; 4-OH-tamoxifen in medium 1 µM) [nM] | relative IC50 (T-47D [1]; 4-OH-tamoxifen in medium 1 µM) [nM] | relative IC50 (BT-474 Tam2 [20]) [nM]
CC(C)C[C@@H](C(=O)N[C@H](C(=O)OC1CCCC1)c1ccccc1)[C@H](O)C(=O)NO [Tosedostat (CHR 2797)] | 3240 | 242 | 1190 | 768 | 939 | 1350 | 850 | 829 | 1250 | 1.5 | 0.354 | 5.85 | 1.07 | 3.46 | 5.48 | 3.93 | 3.62 | 0 | 5.12 | 2.61 | 4.86 | 3.37 | 4 | 5.75 |  |  |  | 
OC[C@H]1O[C@@H](n2cnc3c2N=CNC[C@H]3O)C[C@@H]1O [Pentostatin] | 1900 | 1310 | 2110 | 1320 | 1540 | 1320 | 1450 | 2930 |  | 3.58 | 2.45 | 3.72 | 0.106 | 1.97 | 4.83 | 4.26 | 2.79 | 0.721 | 3.19 | 2.62 | 4.39 | 3.83 | 0.324 | 0.0318 | 1580 | 1140 |  | 
NC1(c2ccc(-c3nc4ccn5c(=O)[nH]nc5c4cc3-c3ccccc3)cc2)CCC1 [MK-2206] | 114 | 78.2 | 170 | 101 | 315 | 119 | 111 | 68.5 | 335 | 5.76 | 2.9 | 7.96 | 0.553 | 4.04 | 5.11 | 1.67 | 4.73 | 2.56 | 5.54 | 7.57 | 6.86 | 7.22 | 1.68 | 2.54 | 73.6 | 54.6 | 177 | 
O=C(CCCCCCC(=O)Nc1ccc([C@H]2O[C@@H](CSc3nc(-c4ccccc4)c(-c4ccccc4)o3)C[C@@H](c3ccc(CO)cc3)O2)cc1)NO [Tubacin] | 3430 |  |  | 1840 | 1360 | 1860 | 3710 | 3350 | 3380 | 2.87 | 4.31 | 0.331 | 1.25 | 0.976 | 3.65 | 5.52 | 5.63 | 0.69 | 1.62 | 1.41 | 0.333 | 0.912 | 1.29 | 4.44 |  |  | 3710 | 3840
